Measured values as given in publication PMC11931565, “Exploring medium and long arm extensions of 1,2,4-triazole derivatives as Candida albicans 14α-demethylase (CYP51) inhibitors” (RSC Medicinal Chemistry, 2025).
Values after ≈ are worked out from the molar mass of the structure shown. Read-outs that look alike come from different tables or passages of the source. Numbered stars: 1 amine (or outer) side, 2 acyl side, 3 side chain; on linkers, the order of the positions; unused ones are H or OH. Bridge positions count the residues as written; N and C are the ends. Square brackets hold non-standard residues; d marks the D form. Peptide text beside a SMILES is read from it. * marks the point of attachment. hTyr(3S-OH,4S-OH,3'-OSO3H) = N[C@H](C(=O)O)[C@H](O)[C@@H](O)c1ccc(O)c(OS(=O)(=O)O)c1; Orn(4R-OH,5R-OH) = O=C([C@H](C[C@@H](O)[C@@H](O)N[*:3])N[*:1])[*:2]; Pro(3S-OH,4S-Me) = C[C@H]1CN[C@H](C(=O)O)[C@H]1O; X1 = CCCCCOc1ccc(-c2cc(-c3ccc(C(=O)*)cc3)no2)cc1; Gln(3R-OH) = NC(=O)C[C@@H](O)[C@H](N)C(=O)O; Hyp = O=C(O)[C@@H]1C[C@@H](O)CN1

What was measured:
[1] = tested on: C. albicans wild-type clinical isolate CA14; test: C. albicans susceptibility testing (CLSI broth microdilution MIC), strain CA14; type: cell-based, Candida albicans; conditions: RPMI 1640, 37 °C, read at 48 h; for MIC: Candida albicans
Excerpt: (§1) Each novel compound was screened against C. albicans wild-type clinical isolate CA14 and C. albicans laboratory strain SC5314 using the standardised CLSI M27-S4 broth dilution method.[28] […] This might be explained by the clog P data as the more lipophilic compounds should more readily penetrate the fungal membrane resulting in improved uptake or may relate to optimal fill of the small hydrophobic pocket leading to improved binding.
(§2) Antifungal MIC values were obtained according to the CLSI microdilution method for yeasts.[28]C. albicans strains CA14 and SC5314 were tested in triplicate. Cultures were diluted to 2.5 × 10^3 cells per mL in RPMI 1640 (Sigma), buffered with 0.165 M MOPS, pH 7.0. Antifungal compounds were dissolved in DMSO and added at a final concentration of 1% v/v DMSO. Plates were incubated at 37 °C and read at 48 h.

[2] = tested on: C. albicans laboratory strain SC5314; test: C. albicans susceptibility testing (CLSI broth microdilution MIC), strain SC5314; type: cell-based, Candida albicans; conditions: RPMI 1640, 37 °C, read at 48 h; for MIC: Candida albicans, SC5314, 48 h
Excerpt: as §1, §2

[3] = molecular target: T1, C. albicans CYP51 (CaCYP51) (Candida albicans, UniProt P10613); test: CaCYP51 reconstitution assay (IC50); type: biochemical; conditions: 1 μM CaCYP51, 60 μM lanosterol, 15 min at 37 °C
T1 construct: made in house; host or cells: E. coli
Experimental: Derivatives with a MIC <1 μg mL^−1 were chosen for IC50 testing.
C. albicans CYP51 was overexpressed in E. coli and purified and CaCYP51 reconstitutions assays performed.[10,37] The final reaction volume of 500 μL, contained; 1 μM C. albicans CYP51, 2 μM Homo sapiens cytochrome P450 reductase (CPR) (UniProtKB accession number P16435), 60 μM lanosterol, 50 μM dilaurylphosphatidylcholine, 4% w/v 2-hydroypropyl-cyclodextrin, 0.4 mg mL^−1 isocitrate dehydrogenase, 25 mM trisodium isocitrate, 50 mM NaCl, 5 mM MgCl2, and 40 mM MOPS (morpholinepropanesulfonic acid, pH 7.2). Antifungal compounds were added in 2.5 μL DMSO. The reaction was started by the addition of 4 mM NADPH-tetrasodium salt. Samples were shaken for 15 min at 37 °C and sterol metabolites extracted with ethyl acetate and derivatised with BSTFA.

native CaCYP51 = molecular target: T2, native CaCYP51 (Candida albicans, UniProt P10613); test: CaCYP51 type II ligand binding affinity (Kd) from difference spectra saturation curves
T2 construct: made in house; host or cells: E. coli
Experimental: Azole titration was performed in triplicate.
The ligand–CaCYP51 complex was determined by non-linear regression (Levenberg–Marquardt algorithm) using a rearrangement of the Morrison equation for tight ligand binding,[38] while weak ligand binding was calculated by the Michaelis–Menten equation. Curve fitting for novel azole saturation curves was performed using the computer program ProFit 6.1.12 (QuantumSoft, Zurich, Switzerland) for Mac OSX. Kd values were determined for each of the three replicate titrations per azole compound and then mean Kd values and standard deviations calculated.

[4] = tested on: S. cerevisiae Y2411 parent (control levels of wild-type ScCYP51); test: MIC, recombinant S. cerevisiae strain Y2411 parent; type: cell-based; conditions: Saccharomyces cerevisiae
Experimental: (§3) The most promising thiazole derivative 7b, and the extended amide derivatives 13a and 13b were evaluated against a panel of recombinant S. cerevisiae strains[24,31,32] expressing control levels of wild-type CYP51 (ScCYP51), overexpressed wild-type ScCYP51, overexpressed azole-resistant ScCYP51 Y140F/H mutations (S. cerevisiae Y140 equivalent to C. albicans Y132), overexpressed C. albicans efflux pumps MDR1a or CDR1B and overexpressed H. sapiens wild-type CYP51 (HsCYP51) (Table 3) at 24 and 48 h with each assay performed in triplicate.
(§4) Minimum inhibitory concentration (MIC) were determined according to recommendations outlined in the Clinical and Laboratory Standards Institute (CLSI) document M27-Ed4E[39] with modifications. Sabouraud dextrose (SD) medium (pH 6.8) was used instead of RPMI-1640 for inoculum and growth of the S. cerevisiae strains and cultures were incubated at 30 °C. […] Stock solutions of each agent were prepared in DMSO and the final concentration of DMSO was 1% (v/v) in SD. […] The final concentration of all other compounds ranged from 0.03–16 μg mL^−1. Three biological repeats were performed.

[5] = tested on: S. cerevisiae Y2300 overexpressed wild-type ScCYP51; test: MIC, recombinant S. cerevisiae strain Y2300 ScCYP51; type: cell-based; conditions: Saccharomyces cerevisiae
Experimental: as §3, §4

[6] = tested on: S. cerevisiae Y2301 overexpressed ScCYP51 Y140F; test: MIC, recombinant S. cerevisiae strain Y2301 Y140F; type: cell-based; conditions: Saccharomyces cerevisiae, pH 6.8, read-out: MIC Y2301 Y140F
Experimental: as §3, §4

[7] = tested on: S. cerevisiae Y2513 overexpressed ScCYP51 Y140H; test: MIC, recombinant S. cerevisiae strain Y2513 Y140H; type: cell-based; conditions: Saccharomyces cerevisiae, pH 6.8, read-out: MIC Y2513 Y140H
Experimental: as §3, §4

[8] = tested on: S. cerevisiae Y525 overexpressing C. albicans MFS transporter MDR1a; test: MIC, recombinant S. cerevisiae strain Y525 CaMDR1a; type: cell-based; conditions: SD medium pH 6.8, 30 °C; 80% inhibition of growth
Experimental: as §4

[9] = tested on: S. cerevisiae Y570 overexpressing C. albicans ABC transporter CDR1B; test: MIC, recombinant S. cerevisiae strain Y570 CaCDR1B; type: cell-based; conditions: SD medium pH 6.8, 30 °C; 80% inhibition of growth
Experimental: as §3, §4

[10] = tested on: S. cerevisiae Y2760 overexpressed H. sapiens wild-type CYP51 (HsCYP51); test: MIC, recombinant S. cerevisiae strain Y2760 HsCYP51; type: cell-based; conditions: Saccharomyces cerevisiae
Experimental: as §3
The HsCYP51 ORF (NP_000777.1) was codon harmonized (ch) using DNA 2.0 for expression in S. cerevisiae and synthesized by ATUM (Newark, Ca, USA). The 3′ end of the ORF was extended to encode EQKI of the ScErg11 C-terminus, followed by a GGR linker and a 6xHis tag. Strain Y2514 was prepared by transforming host strain Y1857 with a transformation cassette including the above construct together with the ScPGK transcription terminator and URA3 selection marker located downstream, bordered by upstream and downstream parts of ScPDR5 gene identical to sequences in ScErg11 over-expressing strain Y941. Strain Y2514 constitutively overexpressed HsCYP51ch-6xHis and URA3 from the ScPDR5 locus.
Strain Y2757 (Y2514, PDR15::HsCPRch-6xHis-LoxP-HIS1-LoxP) was prepared by co-expressing the cognate reductase HsCRP in strain Y2514. Codon harmonisation and synthesis of human NADPH-cytochrome P450 reductase isoform 2 (HsCPRch, NP_001369584.1) ORF was performed by ATUM. The gene was 3′ extended with a sequence encoding GGR-6xHIS. A transformation cassette was prepared by recombinant PCR to include the HsCPRch ORF with 657 nucleotides the ScPDR5 promoter upstream, and the ScPGK terminator followed by the LoxP flanked ScHIS1 selection marker downstream. ScPDR15 specific arms bordering the construct enabled the cassette to be integrated between the nucleotide 441 of the 5′ UTR and nucleotide 1 of the 3′ UTR in PDR15.
Strain Y2758 (Y2757 ΔHIS1) was made using the following steps. Strain Y2757 was transformed with the pSH69 pGAL1-cre plasmid (Euroscarf, Germany) via selection on hygromycin (75 μg mL^−1) containing YPD plates. A single hygromycin positive colony was inoculated in 1% yeast extract, 2% peptone and 2% of galactose broth and incubated for 16 hours at 30 °C with shaking. The diluted culture was then plated on YPD agar and replica-plated on YPD + hygromycin and SD-HIS dropout agar plates. Deletion of the HIS selection marker downstream of HsCPRch-6xHis in the PDR15 locus was confirmed in double His and hygromycin negative isolates by PCR and DNA sequence analysis.
The endogenous ScERG11 ORF in strain Y2758 was removed by transforming with a LoxP- ScHIS1 containing cassette with arms complementing from +387 nucleotides in the 5′UTR and −60 nucleotides in the 3′UTR of the ScERG11 locus, resulting in strain Y2760 (ADΔΔ PDR5::HsCYP51ch-6×HIS-URA3; PDR15::HsCPRch6×HIS-LoxP, ΔERG11-LoxP-HIS1-LoxP).
as §4

[11] = 2.5 μM native CaCYP51, mean ± SD of three titrations, read-out: K d
[12] = SD medium pH 6.8, 30 °C, 80% inhibition of growth, read-out: MIC Y2411 parent
[13] = SD medium pH 6.8, 30 °C, 80% inhibition of growth, read-out: MIC Y2300 ScCYP51
[14] = SD medium pH 6.8, 30 °C, 80% inhibition of growth, read-out: MIC Y2760 HsCYP51

T2 sequence (P10613 whole entry): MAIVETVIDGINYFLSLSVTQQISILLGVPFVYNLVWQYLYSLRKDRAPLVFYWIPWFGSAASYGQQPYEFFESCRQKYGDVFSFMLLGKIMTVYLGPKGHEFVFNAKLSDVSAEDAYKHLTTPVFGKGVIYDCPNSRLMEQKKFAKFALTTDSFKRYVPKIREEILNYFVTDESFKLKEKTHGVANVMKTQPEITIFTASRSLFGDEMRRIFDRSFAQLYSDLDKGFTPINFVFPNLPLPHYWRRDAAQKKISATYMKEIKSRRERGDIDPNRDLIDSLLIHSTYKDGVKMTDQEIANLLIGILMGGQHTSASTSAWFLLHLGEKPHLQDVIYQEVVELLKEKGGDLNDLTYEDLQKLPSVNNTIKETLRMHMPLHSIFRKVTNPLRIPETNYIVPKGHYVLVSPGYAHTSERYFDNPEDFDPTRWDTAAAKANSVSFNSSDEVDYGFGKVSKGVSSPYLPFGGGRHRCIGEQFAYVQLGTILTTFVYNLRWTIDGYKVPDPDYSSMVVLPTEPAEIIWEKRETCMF
T1 sequence (P10613 whole entry): as above

Row | Compound | MIC [1] | MIC CA14 [1] | MIC [2] | MIC SC5314 [2] | IC50 [3] | Kd (native CaCYP51; [11]) | MIC [4, 12] | MIC [5, 13] | MIC [6] | MIC [7] | MIC [8] | MIC [9] | MIC [10, 14] | MIC ([4]; pH 6.8, read-out: MIC Y2411 parent) | MIC ([5]; pH 6.8, read-out: MIC Y2300 ScCYP51) | MIC ([10]; pH 6.8, read-out: MIC Y2760 HsCYP51) | Kd (native CaCYP51)
1 | O=C(NCC(O)(Cn1cncn1)c1ccc(Cl)cc1)c1ccc(NC(=O)c2ccc(Cl)cc2)cc1 (stereo not drawn) [13a, 4-Chloro-N-(4-((2-(4-chlorophenyl)-2-hydroxy-3-(1H-1,2,4-triazol-1-yl)propyl)carbamoyl)phenyl)benzamide] | < 0.03 µg/mL | <0.03 µg/mL | < 0.03 µg/mL | <0.03 µg/mL | 560 nM | 46 ± 8 nM | 0.25 µg/mL | 1 to 2 µg/mL | 1 to 2 µg/mL | 1 µg/mL | 0.125 µg/mL | > 16 µg/mL | > 16 µg/mL | – | – | – | –
2 | O=C(NCC(O)(Cn1cncn1)c1ccc(Cl)cc1Cl)c1ccc(NC(=O)c2ccc(Cl)cc2)cc1 (stereo not drawn) [13b, 4-Chloro-N-(4-((2-(2,4-dichlorophenyl)-2-hydroxy-3-(1H-1,2,4-triazol-1-yl)propyl)carbamoyl)phenyl)benzamide] | < 0.03 µg/mL | <0.03 µg/mL | < 0.03 µg/mL | <0.03 µg/mL | 480 nM | 166 ± 39 nM | 0.03 to 0.06 µg/mL | 0.25 µg/mL | 0.25 µg/mL | 0.125 µg/mL | 0.03 to 0.06 µg/mL | > 16 µg/mL | 4 to 8 µg/mL | – | – | – | –
3 | O=C(NCC(O)(Cn1cncn1)c1ccc(Cl)cc1Cl)c1csc(Cl)n1 (stereo not drawn) [7b, 2-Chloro-N-(2-(2,4-dichlorophenyl)-2-hydroxy-3-(1H-1,2,4-triazol-1-yl)propyl)thiazole-4-carboxamide] | < 0.03 µg/mL | <0.03 µg/mL | < 0.03 µg/mL | <0.03 µg/mL | 410 nM | 106 ± 15 nM | 0.125 µg/mL | 0.5 to 1 µg/mL | 4 µg/mL | 2 to 4 µg/mL | 2 µg/mL | > 16 µg/mL | > 16 µg/mL | – | – | – | –
4 | CCCCCOc1ccc(-c2cc(-c3ccc(C(=O)N[C@H]4C[C@@H](O)[C@@H](O)NC(=O)[C@@H]5[C@@H](O)[C@@H](C)CN5C(=O)[C@H]([C@H](O)CC(N)=O)NC(=O)[C@H]([C@H](O)[C@@H](O)c5ccc(O)c(OS(=O)(=O)O)c5)NC(=O)[C@@H]5C[C@@H](O)CN5C(=O)[C@H]([C@@H](C)O)NC4=O)cc3)no2)cc1 [Micafungin, reference compound] (X1-[Orn(4R-OH,5R-OH)]T[Hyp][hTyr(3S-OH,4S-OH,3'-OSO3H)][Gln(3R-OH)][Pro(3S-OH,4S-Me)]; lactam 1-C) | – | – | – | – | – | – | – | – | 0.125 µg/mL | 0.125 µg/mL | 0.125 µg/mL | 0.125 µg/mL | – | 0.125 µg/mL | 0.125 µg/mL | 0.125 µg/mL | –
5 | CC[C@@H]([C@H](C)O)n1ncn(-c2ccc(N3CCN(c4ccc(OC[C@@H]5CO[C@@](Cn6cncn6)(c6ccc(F)cc6F)C5)cc4)CC3)cc2)c1=O [PCZ, posaconazole, reference compound] | – | – | – | – | – | – | < 0.03 µg/mL | 0.06 µg/mL | 0.06 µg/mL | < 0.03 µg/mL | < 0.03 µg/mL | 8 µg/mL | 8 µg/mL | – | – | – | –
6 | OC(Cn1cncn1)(Cn1cncn1)c1ccc(F)cc1F [FLZ, Fluconazole, reference compound] | 0.125 µg/mL (≈ 0.408 µM) | – | 0.125 µg/mL (≈ 0.408 µM) | – | – | – | 4 µg/mL | 16 µg/mL | 32 µg/mL | 32 µg/mL | 32 µg/mL | > 128 µg/mL | > 128 µg/mL | – | – | – | 31 ± 8 nM
